Among the data in BindingDB's records for patent US20250179094 (Medinno Pharmaceutical Technology (Zhuhai) Co., 2025) are IC50 values, retold here.

Each structure is given as a SMILES string.

The test has as its target T1, TGF-beta receptor type-1 (Homo sapiens, UniProt P36897).
T1 sequence (P36897 whole entry): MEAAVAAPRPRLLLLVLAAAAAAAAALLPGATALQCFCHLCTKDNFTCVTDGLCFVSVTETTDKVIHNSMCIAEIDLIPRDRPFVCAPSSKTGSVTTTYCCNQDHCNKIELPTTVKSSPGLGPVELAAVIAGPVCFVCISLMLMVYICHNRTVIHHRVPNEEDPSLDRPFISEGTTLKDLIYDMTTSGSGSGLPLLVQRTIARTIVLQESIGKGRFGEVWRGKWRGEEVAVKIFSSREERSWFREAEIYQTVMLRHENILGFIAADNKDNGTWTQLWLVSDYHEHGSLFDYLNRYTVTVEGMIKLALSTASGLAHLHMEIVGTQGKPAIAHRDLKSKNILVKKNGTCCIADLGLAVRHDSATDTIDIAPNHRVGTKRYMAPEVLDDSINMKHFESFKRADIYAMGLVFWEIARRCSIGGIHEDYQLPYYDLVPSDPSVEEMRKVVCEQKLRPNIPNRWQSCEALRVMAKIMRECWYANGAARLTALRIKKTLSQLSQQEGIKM
Description: Kinase Activity Assay. As for the experimental part: The principle of the activity assay was that TGFβR1 phosphorylates the substrate TGFβR1tide, consuming ATP in the process. […] The specific experimental steps were as follows. Compounds were diluted 4-fold in DMSO in a dilution plate, with the final starting concentration of the compounds being 10 μM, across 10 concentration gradient points. The compounds were then further diluted 50-fold into the kinase reaction buffer and incubated on a shaker for 20 minutes. Kinase was formulated with an enzyme reaction buffer. 2 μl kinase was added to each well of the reaction plate. 1 μl of the compound diluted in buffer was added to each well, and then the plate was sealed with a sealing membrane and centrifuged at 1000 g for 30 seconds, leaving it at room temperature for 10 minutes. Solutions of TGFβR1tide and ATP were prepared with the kinase reaction buffer, and 2 μL of the TGFβR1tide/ATP solution was added to the reaction plate. The plate was sealed with a sealing film and centrifuged at 1000 g for 30 seconds. It was allowed to react at room temperature for 60 minutes. Subsequently, 4 μL of ADP-Glo was transferred to a 384-well reaction plate and centrifuged at 1000 rpm/min for 1 minute, followed by incubation at 25° C. for 40 minutes. Then, 8 μL of Detection solution was transferred to the 384-well reaction plate and centrifuged at 1000 rpm/min for 1 minute, after which it was incubated at 25° C. for 40 minutes. The RLU (Relative Luminescence Unit) signal was read using a BMG microplate reader, which was used to characterize the degree of kinase activity.
For the molecule `Cc1cccc(-c2nn(Cc3cccc(F)c3)cc2-c2ccnc(-c3nc4c([nH]3)CN(C(=O)N3CCN(C)CC3)C4)c2)n1` [US20250179094, Compound 40], the IC50 (usually the concentration that inhibits the measured activity by half) worked out at 1.6 nM.

Molecule `Cc1cccc(-c2nc3n(c2-c2ccnc(-c4nc5c([nH]4)CN(C(=O)N4CCOCC4)C5)c2)CCC3)n1` [US20250179094, Compound 33] gave an IC50 of 1.7 nM.

On to `CCn1cc(-c2ccnc(-c3nc4c([nH]3)CN(C(=O)N3CCN(C)CC3)C4)c2)c(-c2cccc(C)n2)n1` [US20250179094, Compound 38], for which the IC50 is 4.4 nM.

As to `Cc1cccc(-c2nn3c(c2-c2ccnc(-c4nc5c([nH]4)CN(C(=O)N4CCOCC4)C5)c2)CCC3)n1` [US20250179094, Compound 71], 0.67 nM corresponded to half-maximal inhibition (IC50).

`Cc1cccc(-c2nc3n(c2-c2ccnc(-c4nc5c([nH]4)CN(C(=O)N4CCN(C)CC4)C5)c2)CCOC3)n1` [US20250179094, Compound 61] showed an IC50 of 6.9 nM.

In turn, `Cc1cccc(-c2nc3n(c2-c2ccnc(-c4nc5c([nH]4)CN(C(=O)N4CC[C@@H](N(C)C)C4)C5)c2)CCC3)n1` [US20250179094, Compound 34] returned an IC50 of 1.9 nM.

`Cc1cccc(-c2nn(Cc3ccccc3)cc2-c2ccnc(-c3nc4c([nH]3)CN(C(=O)N3CCN(C)CC3)C4)c2)n1` [US20250179094, Compound 23]: inhibition was half-maximal at 0.9 nM (IC50).

`Cc1cccc(-c2nc[nH]c2-c2ccnc(-c3nc4c([nH]3)CN(C(=O)N3CCN(C)CC3)C4)c2)n1` [US20250179094, Compound 7] came in with an IC50 of 1.1 nM.

Turning to `Cc1cccc(-c2nn(CC3CC3)cc2-c2ccnc(-c3nc4c([nH]3)CN(C(=O)N3CCN(C)CC3)C4)c2)n1` [US20250179094, Compound 43], it took 2.7 nM to reach half-maximal inhibition (IC50). Compared with the last molecule, the IC50 is about 2.5-fold higher.

Consider `Cc1cccc(-c2nc[nH]c2-c2ccnc(-c3nc4c([nH]3)CN(C(=O)N3CCCC3)C4)c2)n1` [US20250179094, Compound 6], for which the IC50 was determined as 22 nM.

The molecule `Cc1cccc(-c2nn3c(c2-c2ccnc(-c4nc5c([nH]4)CN(C(=O)N4CCN(C)CC4)C5)c2)CCC3)n1` [US20250179094, Compound 62] gave an IC50 of 0.9 nM. Compared with the last molecule, the IC50 is about 24-fold lower.

As to `Cc1cccc(-c2nc3n(c2-c2ccnc(-c4nc5c([nH]4)CN(C(=O)N4CC[C@@H](O)C4)C5)c2)CCC3)n1` [US20250179094, Compound 15], the IC50 amounted to 16 nM.

`Cc1cccc(-c2nn3c(c2-c2ccnc(-c4nc5c([nH]4)CN(C(=O)N4CCC(O)CC4)C5)c2)CCC3)n1` [US20250179094, Compound 70]: the IC50 was found to be 2.3 nM. Against the preceding molecule, the IC50 is about 7-fold lower.

`Cc1cccc(-c2nc3n(c2-c2ccnc(-c4nc5c([nH]4)CN(C(=O)N4CCC(O)CC4)C5)c2)CCC3)n1` [US20250179094, Compound 27] gave an IC50 of 4.3 nM.

With `Cc1cccc(-c2nn(Cc3ccccc3)cc2-c2ccnc(-c3nc4c([nH]3)CN(C(=O)C3CC(O)C3)C4)c2)n1` (centres undefined) [US20250179094, Compound 56], half-maximal inhibition (IC50) was put at 23 nM.

As to `Cc1cccc(-c2nn(C)cc2-c2ccnc(-c3nc4c([nH]3)CN(C(=O)N3CCN(C)CC3)C4)c2)n1` [US20250179094, Compound 37], half-maximal inhibition (IC50) was put at 6.5 nM. Against the preceding molecule, the IC50 is about 3.5-fold lower.

In turn, `Cc1cccc(-c2nn3c(c2-c2ccnc(-c4nc5c([nH]4)CN(C(=O)N4CCCC4)C5)c2)CCC3)n1` [US20250179094, Compound 72] returned an IC50 of 2 nM.

The molecule `Cc1cccc(-c2nn(C(C)C)cc2-c2ccnc(-c3nc4c([nH]3)CN(C(=O)N3CCN(C)CC3)C4)c2)n1` [US20250179094, Compound 22] had an IC50 of 7.5 nM.

Regarding `Cc1cccc(-c2nn(Cc3cccc(F)c3)cc2-c2ccnc(-c3nc4c([nH]3)CN(C(=O)C3CC(O)C3)C4)c2)n1` (centres undefined) [US20250179094, Compound 57], 9.9 nM corresponded to half-maximal inhibition (IC50).
